Read-outs that look alike come from different tables or passages of the source.
Assays:
[1] = system: H1975 human non-small cell lung cancer xenograft; assay: Pharmacodynamics in vivo, H1975 xenograft tumor-bearing nude mice; parameters: species or system BALB/c nude mouse; details: PO; for RTV (relative tumor volume) / TV (tumor volume) / Body weight After administration / Body weight Before administration: mean ± standard error
Excerpt: Genus: Rodent, Line: BALB/c nude, age: 6-8 weeks, gender: female, body weight: 18-22 g. Provider of experimental animals: Beijing Ankaiyibo Biological Technology Co. Ltd., Production license No. SCXK(Jing) 2012-0009. Quality Certificate No. 11402400000256 […] The tumor cells in logarithmic growth phase were used in tumor inoculation in vivo. […] When the tumor grew into a volume of about 100 mm^3, the animals were grouped and administered, 8 mice per group. […] Test compound solutions were prepared immediately before administration every day. [table] Vernier caliper was used to measure the volume of tumor twice a week. The long diameter and short diameter of tumor were measured. The volume was calculated by the formula: volume=0.5×long diameter×short diameter^2. According to the measurement results, relative tumor volume (RTV) and relative tumor volume increasing rate (T/C) were calculated. RTV=Vt/V0, wherein Vt is the average value of tumor volume on day t after grouping and administration, V0 is the average value of tumor volume at the day when grouping. T/C=TRTV/CRTV×100%, wherein TRTV is the RTV in the treatment group, and CRTV is the RTV in the solvent control group. […] One-Way ANOVA test was carried out by SPSS17.0 statistic software. Tumor volume was analysed in statistics among groups. P<0.05 is indicative of significant difference.

[2] = Pharmacokinetics in nude mouse; type: in vivo; details: female, BALB/c nude, plasma; for bioavailability: read-out: F (absolute bioavailability)
Description: Test animal: female nude mouse (BALB/c), weight: 20-25 g/mouse.
Solvent for intraveneous injection (iv): 5% DMSO+10% PEG400+85% (28% HP-β-CD)
Solvent for intragastric administration (po): 2% HPC+0.1% Tween 80
0.1283 mL and 0.1059 mL 1M hydrochloric acid solution were separately added to adjust pH to 4.
Compound 2, 27: Compound 27 (3.18 mg) and Compound 2 (3.17 mg) were weighed, respectively, and solvent for intraveneous injection was added to prepare a clear and transparent solution at a theoretical concentration of 1.0 mg/mL.
After homogeneous dispersion, a suspension at a theoretical concentration of 1.0 mg/mL was obtained.
Collection time point: 0.083 h, 0.25 h, 0.5 h, 1 h, 2 h, 4 h, 6 h, 8 h after administration.
60 μL whole blood was collected from intraocular canthus at each time point, and was centrifuged at 8000 r/min for 6 min in a low-temperature centrifuge to separate plasma; the plasma was stored in a refrigerator at −80° C.
The plasma sample of Compound 2 was analyzed by means of protein precipitation: 10 μL plasma was transferred to a 1.5 mL EP tube, 10 μL blank plasma was added, and the mixture was mixed homogeneously under vortexing. 200 μL internal standard (acetonitrile solution containing 25 ng/mL CNX-2006) was added; the resultant mixture was vortexted for 3 min, and then centrifuged at 12000 rpm for 5 min; 150 μL supernatant was accurately taken, to which 50 μL purified water was added. The resultant mixture was vortexed for 3 min and analyzed by LC-MS/MS.

[3] = Table 18, 10 mg/kg, QD × 18, 23 days after inoculation
[4] = Table 18, 30 mg/kg, QD × 18, 23 days after inoculation
[5] = po, 7.6 mg/kg, solid dispersed sample in pH 4.0 buffer
[6] = Table 17, 100 mg/kg, 19 days after inoculation

## C=CC(=O)Nc1cccc(Nc2nc(Nc3ccc(C4CCN(C(C)=O)CC4)cc3OC)ncc2C(F)(F)F)c1 [Compound 2, N-(3-((2-((4-(1-acetylpiperidin-4-yl)-2-methoxyphenyl)amino)-5-(trifluoromethyl)pyrimidin-4-yl)amino)phenyl)acrylamide]
[1]; Table 18, 10 mg/kg, QD × 18
  T/C (relative tumor volume increasing rate): 56.1%
  TGI (tumor growth-inhibiting rate): 43.9%
  Body weight After administration: 22.6 ± 0.3 g
  Body weight Before administration: 21.1 ± 0.4 g
[1]; [3]
  RTV (relative tumor volume): 630 ± 105%
  TV (tumor volume): 588 ± 81 mm^3
[1]; Table 18, 30 mg/kg, QD × 18
  T/C (relative tumor volume increasing rate): 45.7%
  TGI (tumor growth-inhibiting rate): 54.3%
  Body weight After administration: 22.6 ± 0.5 g
  Body weight Before administration: 21.6 ± 0.4 g
[1]; [4]
  RTV (relative tumor volume): 513 ± 54%
  TV (tumor volume): 489 ± 49 mm^3
[2]; iv, 5 mg/kg
  AUC(0-t): 6300 ng·h/mL
  clearance: 13.2 mL/min/kg
[2]; po, 10 mg/kg
  AUC(0-t): 5660 ng·h/mL
  bioavailability: 48%

## C=CC(=O)Nc1cccc(Nc2nc(Nc3ccc(C4CCN(S(C)(=O)=O)CC4)cc3OC)ncc2C(F)(F)F)c1 [Compound 27, N-(3-((2-((2-methoxy-4-(1-(methylsulfonyl)piperidin-4-yl)phenyl)amino)-5-(trifluoromethyl)pyrimidin-4-yl)amino)phenyl)acrylamide]
[2]; iv, 5 mg/kg
  AUC(0-t): 11600 ng·h/mL
  clearance: 7.17 mL/min/kg
[2]; [5]
  AUC(0-t): 9790 ng·h/mL
  bioavailability: 56%

## C=CC(=O)Nc1cccc(Nc2nc(Nc3ccc(N4CCC(N5CCOCC5)CC4)cc3OC)ncc2C(F)(F)F)c1 [Compound 28, N-(3-((2-((2-methoxy-4-(4-morpholinopiperidin-1-yl)phenyl)amino)-5-(trifluoromethyl)pyrimidin-4-yl)amino)phenyl)acrylamide]
[1]; Table 17, 100 mg/kg
  T/C (relative tumor volume increasing rate): 4.7%
  TGI (tumor growth-inhibiting rate): 95.3%
  Body weight After administration: 21.5 ± 0.3 g
  Body weight Before administration: 20.8 ± 0.4 g
[1]; [6]
  RTV (relative tumor volume): 46 ± 6%
  TV (tumor volume): 53 ± 7 mm^3

From patent publication US10300058B2, “Tyrosine kinase inhibitor and uses thereof” (Xuanzhu Pharma Co., Ltd., priority 2014, dated 2019)
